One assay has as its system Mtb 365. The assay is described as follows: microbe, parasite or virus in culture. The note with it: Mycobacterium tuberculosis, 365, read-out: MIC (µg/ml) Mtb 365. The class given is cell-based, Mycobacterium tuberculosis.
The next assay relates to Mtb 276. Briefly: microbe, parasite or virus in culture. The assay is classed as cell-based, Mycobacterium tuberculosis. The note with it: Mycobacterium tuberculosis, 276, read-out: MIC (µg/ml) Mtb 276.
In another assay the test system is Mtb 352. Briefly: microbe, parasite or virus in culture. The class given is cell-based, Mycobacterium tuberculosis. The note with it: Mycobacterium tuberculosis, 352, read-out: MIC (µg/ml) Mtb 352.
A further assay has as its system Mtb 56. The assay is described as follows: microbe, parasite or virus in culture. The class given is cell-based, Mycobacterium tuberculosis. Conditions: Mycobacterium tuberculosis, 56, read-out: MIC (µg/ml) Mtb 56.
Assay [1] deals with M. tuberculosis ATCC 35801 (strain Erdman). The assay is described as follows: Microtiter broth dilution MIC, Mtb Erdman. Conditions: resistance pattern, S3 Table. (Dilution methods test growth across graded concentrations, often in twofold steps.)
For another assay, the system named is Mtb 5. Briefly: microbe, parasite or virus in culture. The assay is classed as cell-based, Mycobacterium tuberculosis. Conditions: Mycobacterium tuberculosis, 5, read-out: MIC (µg/ml) Mtb 5.
Assay [2] concerns MDR and XDR strains of M. tuberculosis. Briefly: microbe, parasite or virus in culture. The assay is classed as cell-based. The note with it: Mycobacterium tuberculosis, read-out: MIC values across the resistant strains.

≈ marks a conversion by molar mass, not a printed value.

For the compound `CC[C@@H](CO)NCCN[C@@H](CC)CO` [Ethambutol, reference compound], the MIC with Mtb 365 was determined as 32 µg/mL (≈ 157 µM); with Mtb 276, 4 µg/mL (≈ 19.6 µM); in the assay with Mtb 352, 1 µg/mL (≈ 4.89 µM); in the assay with Mtb 56, 32 µg/mL (≈ 157 µM). Besides, in assay [1], the “MIC (µg/ml) Mtb Erdmann” value worked out at 1 µg/mL (≈ 4.89 µM).

As for `NNC(=O)c1ccncc1` [INH, Isoniazid, reference compound], the MIC in the assay with Mtb 5 is 2 µg/mL (≈ 14.6 µM); in the assay with Mtb 365, 4 µg/mL (≈ 29.2 µM); in the assay with Mtb 276, 0.25 µg/mL (≈ 1.82 µM); in the assay on Mtb 352, 1 µg/mL (≈ 7.29 µM); with Mtb 56, 2 µg/mL (≈ 14.6 µM); in assay [2] it was 0.25 to 4 µg/mL (≈ 1.82 to 29.2 µM). The “MIC (µg/ml) Mtb Erdmann” value in assay [1] is 0.06 µg/mL (≈ 0.438 µM).

On to `COc1c(N2C[C@@H]3CCCN[C@@H]3C2)c(F)cc2c(=O)c(C(=O)O)cn(C3CC3)c12` [Moxifloxacin, reference compound], for which the MIC with Mtb 5 stood at 1 µg/mL (≈ 2.49 µM); in the assay on Mtb 365, 0.06 µg/mL (≈ 0.149 µM). Besides, the “MIC (µg/ml) Mtb Erdmann” value in assay [1] was determined as 0.06 µg/mL (≈ 0.149 µM).

Turning to `CO[C@H]1/C=C/O[C@@]2(C)Oc3c(C)c(O)c4c(O)c(c(/C=N/N5CCN(C)CC5)c(O)c4c3C2=O)NC(=O)/C(C)=C\C=C\[C@H](C)[C@H](O)[C@@H](C)[C@@H](O)[C@@H](C)[C@H](OC(C)=O)[C@@H]1C` [RIF, rifampin, reference compound], the MIC with Mtb 5 came to 8 µg/mL (≈ 9.72 µM); with Mtb 365, 64 µg/mL (≈ 77.8 µM); in the assay with Mtb 276 it was 0.015 µg/mL (≈ 0.0182 µM); with Mtb 352 it was 0.001 µg/mL (≈ 0.00122 µM); in the assay with Mtb 56, 32 µg/mL (≈ 38.9 µM). Besides, the “MIC (µg/ml) Mtb Erdmann” value in assay [1] is 0.004 µg/mL (≈ 0.00486 µM).

Consider `[H]/N=C(/N)N[C@H]1[C@H](O)[C@@H](O)[C@H](O[C@@H]2O[C@@H](C)[C@](O)(C=O)[C@H]2O[C@@H]2O[C@@H](CO)[C@H](O)[C@@H](O)[C@@H]2NC)[C@@H](N/C(N)=N\[H])[C@@H]1O` [Streptomycin, reference compound], for which the MIC came out at 32 µg/mL (≈ 55 µM) in the assay with Mtb 365, 0.25 µg/mL (≈ 0.43 µM) with Mtb 276, 0.25 µg/mL (≈ 0.43 µM) with Mtb 352 and 32 µg/mL (≈ 55 µM) in the assay on Mtb 56.

The record behind these values is paper PMC5006990 (PLoS ONE, 2016).
